Data taken from the supplement of paper PMC4862054.

How the values were obtained:
Conditions in all cases: incubation time: 72 h
HCC1937 [1] = test: drug sensitivity score (DSS), CellTox Green (DSS (AUC-based score)); higher = stronger drug effect (viability inhibition or cytotoxicity); extreme values may be limits of the assay
Method in brief: (§1)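 After 72 h of incubation in 384-well plates with compound at 5 concentrations (10-fold steps, 10,000-fold range set per compound), breast cancer cell lines seeded in 20 µl suspension were read first for CellTox Green fluorescence at 485/520 nm. CellTiter-Glo luminescence was measured next, after 10 min at room temperature. Normalisation on each plate used 0.1 % DMSO and a positive kill control, and the drug sensitivity score was computed from the area under the fitted dose-response curve.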

BT-549 [2] = test: as above
Method in brief: as §1

HDQ-P1 [3] = test: as above
Method in brief: as §1

MDA-MB-453 [4] = test: as above
Method in brief: as §1

CAL-85-1 = test: drug sensitivity score (DSS), CellTiter-Glo (DSS (AUC-based score)); higher = stronger drug effect (viability inhibition or cytotoxicity); extreme values may be limits of the assay
Method in brief: as §1

MDA-MB-436 = test: as above
Method in brief: as §1

MDA-MB-468 = test: as above
Method in brief: as §1

MCF-10A = test: as above
Method in brief: as §1

CAL-148 = test: as above
Method in brief: as §1

MFM-223 = test: as above
Method in brief: as §1

HCC1937 [5] = test: as above
Method in brief: as §1

BT-549 [6] = test: as above
Method in brief: as §1

HCC1599 = test: as above
Method in brief: as §1

MDA-MB-231 = test: as above
Method in brief: as §1

CAL-51 = test: as above
Method in brief: as §1

HDQ-P1 [7] = test: as above
Method in brief: as §1

HCC1143 = test: as above
Method in brief: as §1

DU-4475 = test: as above
Method in brief: as §1

BT-474 = test: as above
Method in brief: as §1

SK-BR-3 = test: as above
Method in brief: as §1

Hs578T = test: as above
Method in brief: as §1

CAL-120 = test: as above
Method in brief: as §1

MDA-MB-453 [8] = test: as above
Method in brief: as §1

Measured: drug sensitivity score

CC(=O)Nc1ccc(C(=O)Nc2ccccc2N)cc1 [Tacedinaline]
0: HCC1937 [1] | BT-549 [2] | HDQ-P1 [3] | MDA-MB-453 [4] | CAL-85-1 | MDA-MB-436 | MDA-MB-468 | MCF-10A | CAL-148 | MFM-223 | HCC1937 [5] | BT-549 [6] | HCC1599 | MDA-MB-231 | CAL-51 | HDQ-P1 [7] | HCC1143 | DU-4475 | BT-474 | SK-BR-3 | Hs578T | CAL-120 | MDA-MB-453 [8]
